# Assay: Human HepG2 cell viability assay in 384 well format
# Assay type: toxicity, cell-based
# Parameters: dose 125 nL, time 70.5 hour; concentration not given beside the values
# Conditions: HepG2 cells, read-out: Inhibition
row,Structure (SMILES),cytotoxicity at 70.5 h
1,c1cnn(C2CN(Cc3noc(C4CC4)n3)C2)c1,-7.11%
2,O=C(NCCn1ccnc1)c1csc2c1CCCC2,-10.8%
3,Cc1cc(CNC(=O)CCc2ccc(S(N)(=O)=O)cc2)no1,-11.1%
4,COCCCNC(=O)C1(NC(=O)c2ccc3[nH]ncc3c2)CCCC1,-15.2%
5,CC(C)CNC(=O)CSc1nnc(OC(C)C)s1,-10.7%
6,O=C(NC1(C(=O)NC2CCCC2)CCCC1)c1ccc2[nH]ncc2c1,-8.68%
7,Cc1cc(C)c(CNC(=O)NCc2nnc3n2CCCC3)c(=O)[nH]1,-13.4%
8,CCN(CC)c1ccc(CNC(=O)C2(C)CCOCC2)cc1F,14.4%
9,CC(C)c1nc(C2CCCN(c3cnc4ccccc4n3)C2)no1 (stereo not given),-5.55%
10,CCc1noc(CN(C)C(=O)COc2cc(Cl)cc(Cl)c2)n1,1.61%
11,CC(C)c1nc(C2CCCN2c2cnc3cc(F)c(F)cc3n2)no1 (stereo not given),-5.58%
12,O=S1(=O)CCC(N(CCc2ccc3c(c2)CCO3)C2CC2)C1 (stereo not given),-1.96%
13,N#Cc1cccc(S(=O)(=O)NC(=O)COCC(F)(F)F)c1,0.976%
14,CC(=O)NC1CCCN(C(=O)CNc2cccc(C)c2Cl)C1 (stereo not given),21.2%
15,COc1cc(C(=O)NCCc2cccc(C)c2)on1,2.66%
16,COc1ccc(NC(=O)NCc2cccc(N(C)C)n2)c(Cl)c1,-8%
17,CN(C)c1cccc(CNC(=O)Nc2cc(C#N)ccc2Cl)n1,-4.82%
18,CCN(C)C1CCCc2nc(C)sc21 (stereo not given),-5.07%
19,CCC(C)NS(=O)(=O)Cc1cccc(NC(=O)c2cc[nH]c2C)c1 (stereo not given),-5.4%
20,O=C(NCCCn1ccnc1)c1csc2c1CCCC2,15.4%
21,COCCNC(=O)CSc1nnc(OC(C)C)s1,-10.2%
22,CC(C)OCCCNC(=O)CSc1nnc(OC(C)C)s1,-4.19%

row,Structure (SMILES),cytotoxicity at 70.5 h
1,Cc1ccc(CN2C[C@H](OCC3CCN(C)CC3)[C@H]3COC[C@H]32)o1,4.22%
2,CCN(C(=O)c1nc2c(s1)CCCN2C)C(C)C,-1.08%
3,Cc1cccc(N2CC[C@H]3CO[C@H](CN(C)Cc4ccco4)[C@H]3C2)n1,-2.06%
4,Cc1cccc(S(=O)(=O)N2C[C@@H]3C[C@@H](c4nnc(C)[nH]4)O[C@@H]3C2)c1,-1.93%
5,CN(C)Cc1cncc2c1CCN(CC(=O)N(C)C)C2,10.2%
6,CCc1cnc(N2C[C@@H]3[C@@H](C(=O)N(C)C)CCS(=O)(=O)[C@@H]3C2)nc1,-7.5%
7,CC(C)CNC(=O)[C@H]1CCS(=O)(=O)[C@@H]2CN(c3ncccn3)C[C@H]12,-10.6%
8,CC(=O)N(C)Cc1ncn2c1CN(C(=O)C1CCCO1)CCC2 (stereo not given),-5.86%
9,CC(=O)N(C)Cc1ncn2c1CN(C(=O)CC1CC1)CCC2,-9.44%
10,O=C([C@@H]1CCS(=O)(=O)[C@@H]2CN(c3ncccn3)C[C@@H]21)N1CCOCC1,-1.98%
11,Cc1nc(N2CCCC2)nc2c1CCN(C(=O)c1ccoc1C)CC2,1.32%
12,Cc1cc(C(=O)N2CCc3nc(N4CCCC4)nc(C)c3CC2)c(C)o1,-7.18%
13,CN(C)CC(=O)N1CCc2sc(C(=O)N3CCOCC3)cc21,-0.909%
14,CN(C)CC(=O)N1CCc2sc(C(=O)N3CCN(C)CC3)cc21,-2.73%
15,c1cc(CN2CC[C@@H]3CN(c4cncnc4)C[C@@H]3C2)ccn1,-6.08%
16,O=C1N(c2ccsc2)CCC12CCCN(c1ccccn1)C2 (stereo not given),5.29%
17,CCc1ncnc2c1CCN(S(=O)(=O)CC)CC2,-7.89%
18,Cc1nc(CN2C[C@@H]3CN(C(=O)c4ccncc4)C[C@@H]3C2)cs1,-9.65%
19,O=C(NCC1CC1)C1CN(C(=O)NC2CCCC2)Cc2cncn2C1 (stereo not given),-6.07%
20,CCOCC(=O)N1CCC2(CC1)CC(c1ccccc1)CO2 (stereo not given),-2.96%
21,CCN(CC)Cc1cc(=O)n2c(n1)CN(C(=O)c1ccc[nH]1)CCC2,-4.87%
22,COCC1CN(S(=O)(=O)c2cccc(F)c2)Cc2nccn2C1 (stereo not given),-7.05%

row,Structure (SMILES),cytotoxicity at 70.5 h
1,O=c1cc(CN2CCCC2)nc2n1CCCN(CC1CC1)C2,20.8%
2,CC(C)n1c2ccccc2c2c1cc(C(=O)N(C)C)n2C,16.4%
3,CC(C)n1c2ccccc2c2c1cc(C(=O)O)n2C(=O)N(C)C,-2.89%
4,CC(=O)N1CCC2(CCN(CC3CCOC3)C2)CC1 (stereo not given),-1.33%
5,O=C([C@@H]1CCCO1)N1CCOCC2(CCN(Cc3cccnc3)C2)C1 (stereo not given in full),0.333%
6,CC(C)[C@H]1CN(Cc2nccn2C)C[C@@H]1NC(=O)CCS(C)(=O)=O,-5.68%
7,CCc1cc(N(C)Cc2ccnc(C)c2)n2nc(C)c(C)c2n1,40.9%
8,O=C(CSCC1CC1)N1CCC2(CCCN(C3CCOCC3)C2=O)C1 (stereo not given),-6.7%
9,OCC1(Cc2ccccc2F)CCCN(c2ccc3ccccc3n2)C1 (stereo not given),-1.23%
10,CC(C)c1cc(NC(CO)CO)n2nccc2n1,-10.2%
11,COc1ccc(C2(C(=O)N3CC[C@@]4(O)CCNC[C@H]4C3)CCCC2)cc1,17.8%
12,CCN(Cc1nccs1)Cc1cc(Cl)ccc1OC,2.82%
13,CC(CN1CCCCCC1)NCc1cc(-c2ccco2)on1 (stereo not given),-12.2%
14,CN1CCN(Cc2cnn(-c3ccccc3Cl)c2)[C@H]2CS(=O)(=O)C[C@H]21,-5.22%
15,Cc1noc(C)c1CCCNC(=O)Nc1ccc2c(c1)COC2,7.04%
16,Cc1nc[nH]c1CN1CCN(C(=O)C2CC2)[C@H]2CS(=O)(=O)C[C@H]21,-12.6%
17,Cc1c(C(=O)NCC2CCN(C)C2)n(C)c2c(C)cccc12 (stereo not given),-7.34%
18,Cc1nc(CN2CCN(c3nc4c(s3)c(C)nn4C)CC2)cs1,-3.02%
19,Cc1nn(C)c(C)c1CN(C)c1nc(C2CCCC2)nc2c1cnn2C,8.68%
20,CS(=O)(=O)N1CC[C@@H]2[C@@H](CCC(=O)N2CCC2=CCCCC2)C1,16.1%
21,Cn1ccnc1SCCNC(=O)Cn1cnc2ccccc2c1=O,1.77%
22,Cc1cc2ccccc2n1CCC(=O)NCCS(C)(=O)=O,-10.9%

row,Structure (SMILES),cytotoxicity at 70.5 h
1,CCC(CO)N(Cc1cccc(O)c1)Cc1ccccc1C (stereo not given),-5.23%
2,O=C(CCn1ccccc1=O)N1CCCC(COc2ccc(F)cc2)C1 (stereo not given),-7.1%
3,CCOc1ccccc1CC(=O)N1C[C@@H](C(=O)O)[C@H](C2CC2)C1,-1.88%
4,CN1CCC(CNC(=O)c2ccc3cccc(Cl)c3n2)C1 (stereo not given),-6.3%
5,CCn1nc(C)c(C(C)NC(=O)c2cnc(N(C)C)nc2C)c1C (stereo not given),1.08%
6,CCN(C)C[C@@H]1CN(C(=O)c2cc(-c3ccc(F)cc3)n[nH]2)C[C@@H]1CO,-4.68%
7,CC(C)[C@@H]1CN(C(=O)NCc2ccco2)C[C@H]1N(C)C,-5.48%
8,CN(CCO)C[C@@H]1CN(C2CCN(c3ccccc3Cl)CC2)C[C@@H]1CO,-10.1%
9,CCOc1ccc(Cl)cc1C(C(=O)O)N1CCOCC1 (stereo not given),-4.12%
10,CC(C)c1cc(NCC2(N(C)C)CCCC2)ncn1,-2.85%
11,Cn1cc(C(=O)NCc2cncc3c2CCNC3)cn1,23.2%
12,CC(C)N(C)Cc1cncc2c1CCN(Cc1cccs1)C2,-3.46%
13,COCCN1CCOCC2(C1)CN(C(=O)c1conc1C)CCO2 (stereo not given),-1.78%
14,CCN1C(=O)CCCC12CCCN(C(=O)c1ccncc1F)C2 (stereo not given),-2.27%
15,c1cnc(N2CC[C@@H](OCC3CC3)[C@@H]2Cc2cccnc2)nc1,-4.73%
16,Cn1ccc(C(=O)N2CCOC3(COCCN(CC4CC4)C3)C2)n1 (stereo not given),-3.98%
17,CCOC(=O)[C@]12CCCN(Cc3ccco3)C[C@H]1CN(S(C)(=O)=O)C2,-4.24%
18,CC1c2ncc(Cn3cccn3)n2CCN1S(C)(=O)=O (stereo not given),19.8%
19,O=S(=O)(c1cccs1)N1Cc2nc(CN3CCCC3)oc2C1,-6.48%
20,CCN(CC)Cc1nc2c(o1)CN(S(=O)(=O)c1cccs1)C2,-10.4%
21,N#Cc1ccc(N2CCCC3(CCC(=O)N3CC3CC3)CC2)nc1 (stereo not given),-0.642%
22,O=C(NCc1cc(=O)n2c(n1)CN(CC1CC1)CCC2)c1ccsc1,17.3%

row,Structure (SMILES),cytotoxicity at 70.5 h
1,O=C(C1CCOC1)N1C[C@H]2CN(Cc3cccnc3)C(=O)[C@H]2C1 (stereo not given in full),11.7%
2,Cc1nc(N2CCCC2)nc2c1CCN(Cc1nccn1C)CC2,-10.2%
3,Cc1cc(CN2CCC3(CC2)COC(COCC2CC2)C3)no1 (stereo not given),-9.77%
4,COCCN1CCCn2c(nc(CNS(C)(=O)=O)cc2=O)C1,-6.97%
5,COCCN1CCC(c2nc3ccc(NC4CCC4)cn3n2)CC1,0.236%
6,O=C(Cc1ccncc1)N1CCC2(CC1)CC(c1ccccc1)CO2 (stereo not given),19.4%
7,CCS(=O)(=O)N1CCC2(CC1)CN(CC1CCOC1)c1ccccc12 (stereo not given),26%
8,c1ccc2c(c1)N(CC1CCOC1)CC21CCN(c2cnccn2)CC1 (stereo not given),-0.723%
9,Cc1noc(C)c1CN1CCc2ncnc(-c3cnn(C)c3)c2CC1,-8.16%
10,c1cncc(OC[C@@]23CCC[C@@H]2CN(C2CCOCC2)C3)c1,-1.53%
11,CCN(CC)Cc1cn2c(n1)CN(Cc1c(C)noc1C)CC2,0.0103%
12,Cc1noc(C)c1CN1CCn2cc(CN3CCCC3)nc2C1,-4.15%
13,Cn1cc(CN2CCc3ccc(=O)n(Cc4ccncc4)c3CC2)cn1,-7%
14,CN(C)CCN1C(=O)CCCC12CCCN(C(=O)c1ccncc1)C2 (stereo not given),-3.49%
15,c1cncc(OC[C@]23COC[C@H]2CN(C2CCC2)C3)c1,-1.17%
16,N#Cc1ccc(N2CCC3(CCC(=O)N3Cc3cccnc3)CC2)nc1,-5.74%
17,N#Cc1ccc(N2CCC3(CCC(=O)N3Cc3ccncc3)CC2)nc1,-6.82%
18,CC(C)N1CCC2(CC1)C(=O)N(CCN(C)C)c1ccccc12,-6.47%
19,COCCN1CCO[C@H]2CN(Cc3cc[nH]n3)C[C@H]21,-7.3%
20,COCCN1CCN(c2cccc(C)n2)Cc2ccc(C)nc21,2.66%
21,Cc1nc(CN2C[C@@H]3CN(C(=O)Cc4ccccn4)C[C@@H]3C2)cs1,-4.03%
22,Cn1nccc1-c1nnn2c1COCC(CNCC1CC1)C2 (stereo not given),-2.84%
